# Assay results from US8653069B2, “Aralkyl substituted piperidine or piperazine derivatives and their use for treating schizophrenia” (Jiangsu Hengyi Pharmaceutical Co., Ltd., priority 2008, dated 2014).
# Structures can show the parent of a compound that is named as a salt.
# Molecular target: T1, dopamine D2 receptor (Homo sapiens, UniProt P14416)
# T1 construct: expressed in transfected cells; host or cells: CHO-hD2L cells (membrane preparation)
# Experiment: Dopamine D2 receptor-binding assay ([3H]Spiperone displacement)
# Conditions: inhibition of binding of 0.4 nM [3H]Spiperone, CHO-hD2L film product, room temperature 120 minutes; read-out: IC50 (affinity to D2 receptor)
# Description: A Dopamine D2 Receptor-Binding Assay
# An isotope ligand for D2 receptor: [^3H]Spiperone (77.0 Ci/mmol); (+)Butaclamol; GF/C glass fiber media; a liposoluble scintillation solution; and the D2 receptor protein expressed by sf9 cells.
# A binding assay of a film product of CHO-hD2L cells and [^3H]Spiperone is conducted in a 250 μl of 50 mM of Tris-HCl […] buffer (Ph=7.4) solution comprising 100 mM of NaCl, 1 mM of MgC12 and 1% of DMSO. A sample in duplicate containing compounds to be tested, 0.4 nM of [^3H]Spiperone and 12 ug of protein is maintained at room temperature for 120 minutes. The bound radioactive ligand is separated by flash filtration under reduced pressure using Whatman GF/B glass fiber filter pre-treated with 0.3% polyethylenelmine, and radioactivity maintained on the filter is measured using liquid scintillation spectrophotometry. The title compounds in the following examples are tested using the above test, which comprises first of all testing competitive inhibition rate of each compound at a concentration of 10 umol/L to binding of [^3H]Spiperone to D2 receptor through a rough screening; and compounds having inhibition rate higher than 95% are subjected to receptor binding assay under a series of concentrations to determine a half-inhibitory concentration (IC50, the concentration of a compound needed for inhibiting binding of 50% [^3H]Spiperone to D2 receptor). Two tubes under each concentration are measured, and each compound is subjected to two independent tests.
# T1 sequence (P14416 whole entry): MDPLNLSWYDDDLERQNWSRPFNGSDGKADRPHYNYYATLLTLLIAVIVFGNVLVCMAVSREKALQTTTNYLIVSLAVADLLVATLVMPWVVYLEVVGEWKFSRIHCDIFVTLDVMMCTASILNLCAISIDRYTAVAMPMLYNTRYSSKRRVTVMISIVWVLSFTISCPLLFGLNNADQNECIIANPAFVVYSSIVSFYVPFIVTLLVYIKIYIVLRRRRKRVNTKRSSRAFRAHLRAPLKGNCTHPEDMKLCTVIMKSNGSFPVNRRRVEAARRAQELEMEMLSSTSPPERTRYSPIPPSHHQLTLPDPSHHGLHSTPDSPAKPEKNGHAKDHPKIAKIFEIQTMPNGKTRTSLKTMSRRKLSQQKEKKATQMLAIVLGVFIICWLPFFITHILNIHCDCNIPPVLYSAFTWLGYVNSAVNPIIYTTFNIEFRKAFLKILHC
row,Compound,IC50 [µM]
1,6-[4-(4-(3-(6-fluoro-benzisoxazolyl))-1-piperazinyl)-n-butoxy]-(1H)-indole [IV-3],0.0123
2,"O=C1CCc2ccc(OCCCCN3CCN(c4noc5cc(Cl)ccc45)CC3)cc2N1 [I-1, 7-[4-(4-(6-chloro-benzisoxazolyl)-1-piperazinyl)-n-butoxy]-3,4-dihydro-2(1H)-quinolinone hydrochloride]",0.0257
3,"O=C1CCc2ccc(OCCCCN3CCN(c4noc5ccc(Cl)cc45)CC3)cc2N1 [I-2, 7-[4-(4-(5-chloro-benzisoxazolyl)-1-piperazinyl)-n-butoxy]-3,4-dihydro-2(1H)-quinolinone hydrochloride]",0.0568
4,"O=C1CCc2ccc(OCCCCN3CCN(c4noc5ccccc45)CC3)cc2N1 [I-3, 7-[4-(4-(benzisoxazolyl)-1-piperazinyl)-n-butoxy]-3,4-dihydro-2(1H)-quinolinone hydrochloride]",0.0993
5,"O=C1CCc2ccc(OCCCCN3CCN(c4noc5cc(F)ccc45)CC3)cc2N1 [I-4, 7-[4-(4-(6-fluoro-benzisoxazolyl)-1-piperazinyl)-n-butoxy]-3,4-dihydro-2(1H)-quinolinone hydrochloride]",0.0102
6,"O=C1CCc2ccc(OCCCCN3CCN(c4noc5cc(C(F)(F)F)ccc45)CC3)cc2N1 [I-5, 7-[4-(4-(6-trifluoromethyl-benzisoxazolyl)-1-piperazinyl)-n-butoxy]-3,4-dihydro-2(1H)-quinolinone hydrochloride]",0.0536
7,"Cc1ccc2onc(N3CCN(CCCCOc4ccc5c(c4)NC(=O)CC5)CC3)c2c1 [I-7, 7-[4-(4-(5-methyl-benzisoxazoly)-1-piperazinyl)-n-butoxy]-3,4-dihydro-2(1H)-quinolinone hydrochloride]",0.29
8,"O=C1CCc2ccc(OCCCCN3CCN(c4noc5cc(O)ccc45)CC3)cc2N1 [I-8, 7-[4-(4-(6-hydroxy-benzisoxazolyl)-1-piperazinyl)-n-butoxy]-3,4-dihydro-2(1H)-quinolinone hydrochloride]",0.157
9,"COc1ccc2onc(N3CCN(CCCCOc4ccc5c(c4)NC(=O)CC5)CC3)c2c1 [I-9, 7-[4-(4-(5-methoxy-benzisoxazolyl)-1-piperazinyl)-n-butoxy]-3,4-dihydro-2(1H)-quinolinone hydrochloride]",0.025
10,"O=C1CCc2ccc(OCCCCN3CCN(c4noc5ccc(Br)cc45)CC3)cc2N1 [I-11, 7-[4-(4-(5-bromo-benzisoxazolyl)-1-piperazinyl)-n-butoxy]-3,4-dihydro-2(1H)-quinolinone hydrochloride]",0.0778
11,"COc1ccc2c(N3CCN(CCCCOc4ccc5c(c4)NC(=O)CC5)CC3)noc2c1Br [I-12, 7-[4-(4-(7-bromo-6-methoxy-benzisoxazolyl)-1-piperazinyl)-n-butoxy]-3,4-dihydro-2(1H)-quinolinone hydrochloride]",0.0102
12,"O=C1CCc2ccc(OCCCN3CCC(c4noc5cc(F)ccc45)CC3)cc2N1 [II-2, 7-[3-(4-(6-fluoro-benzisoxazolyl)-1-piperidinyl)-n-propoxy]-3,4-dihydro-2(1H)-quinolinone hydrochloride]",0.0162
13,"O=C1CCc2ccc(OCCCCCN3CCC(c4noc5cc(F)ccc45)CC3)cc2N1 [II-3, 7-[5-(4-(6-fluoro-benzisoxazolyl)-1-piperidinyl)-pentyloxy]-3,4-dihydro-2(1H)-quinolinone hydrochloride]",0.202
14,"O=C1CCc2ccc(OCCCCN3CCC(c4noc5ccccc45)CC3)cc2N1 [II-4, 7-[(4-benzisoxazolyl-1-piperidinyl)-n-butoxy]-3,4-dihydro-2(1H)-quinolinone hydrochloride]",0.0236
15,"O=C1CCc2ccc(OCCCCN3CCC(c4noc5cc(Cl)ccc45)CC3)cc2N1 [II-5, 7-[4-(4-(6-chloro-benzisoxazolyl)-1-piperidinyl)-n-butoxy]-3,4-dihydro-2(1H)-quinolinone hydrochloride]",0.0158
16,"COc1ccc2onc(C3CCN(CCCCOc4ccc5c(c4)NC(=O)CC5)CC3)c2c1 [II-6, 7-[4-(4-(5-methoxy-benzisoxazolyl)-1-piperidinyl)-n-butoxy]-3,4-dihydro-2(1H)-quinolinone hydrochloride]",0.277
17,"O=C1CCc2ccc(OCCCCN3CCC(c4noc5ccc(F)cc45)CC3)cc2N1 [II-7, 7-[4-(4-(5-fluoro-benzisoxazolyl)-1-piperidinyl)-n-butoxy]-3,4-dihydro-2(1H)-quinolinone hydrochloride]",0.0126
18,"COc1cc2onc(C3CCN(CCCCOc4ccc5c(c4)NC(=O)CC5)CC3)c2cc1OC [II-8, 7-[4-(4-(5,6-dimethoxy-benzisoxazolyl)-1-piperidinyl)-n-butoxy]-3,4-dihydro-2(1H)-quinolinone hydrochloride]",0.0238
19,"O=C1CCc2ccc(OCCCCN3CCC(c4noc5ccc(O)cc45)CC3)cc2N1 [II-9, 7-[4-(5-hydroxy-benzisoxazolyl)-1-piperidinyl)-n-butoxy]-3,4-dihydro-2(1H)-quinolinone hydrochloride]",0.0788
20,"O=C1CCc2ccc(OCCCCN3CCC(c4noc5cc(O)c(O)cc45)CC3)cc2N1 [II-10, 7-[4-(5,6-dihydroxy-benzisoxazolyl)-1-piperidinyl)-n-butoxy]-3,4-dihydro-2(1H)-quinolinone hydrochloride]",0.0456
21,"O=C1CCc2ccc(OCCCCN3CCN(c4nsc5ccccc45)CC3)cc2N1 [III-1, 7-[4-(1,2-benzisothiazol-3-yl)-1-piperazinyl)-n-butoxy]-3,4-dihydro-2(1H)-quinolinone hydrochloride]",0.00523
22,"O=C1CCc2ccc(OCCCN3CCN(c4nsc5ccccc45)CC3)cc2N1 [III-2, 7-[3-(1,2-benzisothiazolyl)-1-piperazinyl]-n-propoxy]-3,4-dihydro-2(1H)-quinolinone hydrochloride]",0.0768
23,"COc1ccc2c(N3CCN(CCCCOc4ccc5c(c4)NC(=O)CC5)CC3)nsc2c1 [III-4, 7-[4-(6-methoxy-1,2-benzisothiazolyl)-1-piperazinyl]-n-butoxy]-3,4-dihydro-2(1H)-quinolinone of hydrochloride]",0.0179
24,"COc1cccc2c(N3CCN(CCCCOc4ccc5c(c4)NC(=O)CC5)CC3)nsc12 [III-5, 7-[4-(7-methoxy-1,2-benzisothiazolyl)-1-piperazinyl]-n-butoxy-3,4-dihydro-2(1H)-quinolinone hydrochloride]",0.0158
25,"COc1ccc2snc(N3CCN(CCCCOc4ccc5c(c4)NC(=O)CC5)CC3)c2c1 [III-6, 7-[4-(5-methoxy-1,2-benzisothiazolyl)-1-piperazinyl]-n-butoxy]-3,4-dihydro-2(1H)-quinolinone hydrochloride]",0.015
26,"COc1cccc2snc(N3CCN(CCCCOc4ccc5c(c4)NC(=O)CC5)CC3)c12 [III-7, 7-[4-(4-methoxy-1,2-benzisothiazolyl)-1-piperazinyl]-n-butoxy]-3,4-dihydro-2(1H)-quinolinone hydrochloride]",0.168
27,"O=C1Cc2ccc(OCCCCN3CCC(c4noc5cc(F)ccc45)CC3)cc2N1 [IV-1, 6-[4-(4-(3-(6-fluoro-benzisoxazolyl))-1-piperidinyl)-n-butoxy)-indoline-2-one]",0.0389

# Molecular target: T2, rD2R (Rattus norvegicus, UniProt P61169)
# T2 construct: expressed in transfected cells; host or cells: CHO cells stably expressing rD2R (CHO-rD2)
# T2 sequence (P61169 whole entry): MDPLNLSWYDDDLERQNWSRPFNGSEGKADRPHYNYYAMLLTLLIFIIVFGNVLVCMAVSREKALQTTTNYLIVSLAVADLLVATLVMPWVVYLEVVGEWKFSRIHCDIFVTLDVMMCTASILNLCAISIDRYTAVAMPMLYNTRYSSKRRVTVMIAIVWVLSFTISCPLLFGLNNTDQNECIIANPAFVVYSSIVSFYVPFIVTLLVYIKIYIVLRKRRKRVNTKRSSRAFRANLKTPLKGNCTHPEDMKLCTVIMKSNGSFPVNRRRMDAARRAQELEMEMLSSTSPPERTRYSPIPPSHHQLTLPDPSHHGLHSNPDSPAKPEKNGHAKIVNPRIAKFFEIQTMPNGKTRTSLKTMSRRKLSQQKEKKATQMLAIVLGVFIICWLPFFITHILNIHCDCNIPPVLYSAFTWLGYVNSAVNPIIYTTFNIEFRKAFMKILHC
# Experiment: Antagonistic test of D2 receptor (cAMP radioimmunoassay, Forskolin + Dopamine, CHO-rD2 cells)
# Format: cell-based
# Conditions: 10 μM Forskolin + 10 μM Dopamine, cAMP generated
# Description: An Antagonistic Test of D2 Receptor
# CHO-rD2 cell is seeded on a 96-well plate at a concentration of 30,000 cells/well, and cultured overnight; each medicine is dissolved in a serum-free F12 culture media containing 100 μM of IBMX, and is added to the above cell for preculturing 30 minutes at 37° C.; thereafter a serum-free F12 culture media containing 10 μM of Forskolin and 10 μM of Dopamine is added and react for 8 minutes, and then 100 μl of pre-cooled 1M HClO4 is added to terminate the reaction. The reaction solution is allowed to stand on ice for 40 minutes, and thereto 20 μl of 2M K2CO3 is added to neutralize the reaction solution. The reaction solution is centrifuged at 3,000 rpm for 15 minutes at 4° C., and a KClO4 deposit is discarded. An amount of supernatant is diluted in 0.05M of acetic acid buffer, and the amount of generated cAMP is measured with radioimmunoassay method. […] See the kit's instructions for detailed steps. Two tubes under each concentration of each compound are measured, and each compound is subjected to two independent tests.
# The ordinate of the dose-effect curve represents a reduced percentage of the amount of generated cAMP through antagonist of DA by the compound.
row,Compound,IC50 [µM]
1,"O=C1CCc2ccc(OCCCCN3CCN(c4nsc5ccccc45)CC3)cc2N1 [III-1, 7-[4-(1,2-benzisothiazol-3-yl)-1-piperazinyl)-n-butoxy]-3,4-dihydro-2(1H)-quinolinone hydrochloride]",56.4
2,"O=C1Cc2ccc(OCCCCN3CCC(c4noc5cc(F)ccc45)CC3)cc2N1 [IV-1, 6-[4-(4-(3-(6-fluoro-benzisoxazolyl))-1-piperidinyl)-n-butoxy)-indoline-2-one]",198

# System: not listed separately
# Experiment: in vivo
# Conditions: mouse, po
row,Compound,LD50 [mg/kg]
1,O=C1Cc2cc(CCN3CCN(c4nsc5ccccc45)CC3)c(Cl)cc2N1 [ziprasidone],1600
